The source made the active and inactive calls. The rule behind the calls is not given here.
System: CCRIS mutagenicity, Ames/micronucleus/aberration tests
Assay: CCRIS mutagenicity studies
[1] = Test System: AMES SALMONELLA TYPHIMURIUM, Strain/Indicator: TA98, Metabolic Activation: NONE, Method: STANDARD PLATE
[2] = Test System: AMES SALMONELLA TYPHIMURIUM, Strain/Indicator: TA100, Metabolic Activation: NONE, Method: STANDARD PLATE
[3] = Test System: AMES SALMONELLA TYPHIMURIUM, Strain/Indicator: TA1537, Metabolic Activation: NONE, Method: STANDARD PLATE

Measured: mutagenic call

CC(C)=CC1C(C(=O)OCc2coc(Cc3ccccc3)c2)C1(C)C (stereo not drawn)
active: Test System: AMES SALMONELLA TYPHIMURIUM, Strain/Indicator: TA98 active; positive | Test System: AMES SALMONELLA TYPHIMURIUM, Strain/Indicator: TA100 active; positive
inactive: Test System: AMES SALMONELLA TYPHIMURIUM, Strain/Indicator: TA97, Metabolic Activation: NONE, Method: STANDARD PLATE inactive; negative | Test System: AMES SALMONELLA TYPHIMURIUM, Strain/Indicator: TA97, Metabolic Activation: RAT, LIVER, S-9, PHENOBARBITONE, Method: STANDARD PLATE inactive; negative | Test System: AMES SALMONELLA TYPHIMURIUM, Strain/Indicator: TA98, Metabolic Activation: NONE inactive; negative | [1] inactive; negative | Test System: AMES SALMONELLA TYPHIMURIUM, Strain/Indicator: TA98, Metabolic Activation: RAT, LIVER, S-9, AROCLOR 1254, Method: STANDARD PLATE inactive; negative | Test System: AMES SALMONELLA TYPHIMURIUM, Strain/Indicator: TA98, Metabolic Activation: RAT, LIVER, S-9, PHENOBARBITONE, Method: STANDARD PLATE inactive; negative | Test System: AMES SALMONELLA TYPHIMURIUM, Strain/Indicator: TA100, Metabolic Activation: NONE inactive; negative | [2] inactive; negative | Test System: AMES SALMONELLA TYPHIMURIUM, Strain/Indicator: TA100, Metabolic Activation: RAT, LIVER, S-9, AROCLOR 1254, Method: STANDARD PLATE inactive; negative | Test System: AMES SALMONELLA TYPHIMURIUM, Strain/Indicator: TA100, Metabolic Activation: RAT, LIVER, S-9, PHENOBARBITONE, Method: STANDARD PLATE inactive; negative | Test System: AMES SALMONELLA TYPHIMURIUM, Strain/Indicator: TA104, Metabolic Activation: NONE, Method: STANDARD PLATE inactive; negative | Test System: AMES SALMONELLA TYPHIMURIUM, Strain/Indicator: TA104, Metabolic Activation: RAT, LIVER, S-9, PHENOBARBITONE, Method: STANDARD PLATE inactive; negative | Test System: AMES SALMONELLA TYPHIMURIUM, Strain/Indicator: TA1535, Metabolic Activation: NONE, Method: STANDARD PLATE inactive; negative | Test System: AMES SALMONELLA TYPHIMURIUM, Strain/Indicator: TA1535, Metabolic Activation: RAT, LIVER, S-9, AROCLOR 1254, Method: STANDARD PLATE inactive; negative | [3] inactive; negative | Test System: AMES SALMONELLA TYPHIMURIUM, Strain/Indicator: TA1537, Metabolic Activation: RAT, LIVER, S-9, AROCLOR 1254, Method: STANDARD PLATE inactive; negative | Test System: CHINESE HAMSTER V-79, Strain/Indicator: V-79/6-THIOGUANINE, Metabolic Activation: NONE, Method: STANDARD PLATE inactive; negative | Test System: CHINESE HAMSTER V-79, Strain/Indicator: V-79/6-THIOGUANINE, Metabolic Activation: RAT HEPATOCYTES, Method: STANDARD PLATE inactive; negative | Test System: CHINESE HAMSTER V-79, Strain/Indicator: V-79/OUABAIN, Metabolic Activation: NONE, Method: STANDARD PLATE inactive; negative | Test System: CHINESE HAMSTER V-79, Strain/Indicator: V-79/OUABAIN, Metabolic Activation: RAT HEPATOCYTES, Method: STANDARD PLATE inactive; negative | Test System: E. COLI, Strain/Indicator: WP2, Metabolic Activation: NONE, Method: STANDARD PLATE inactive; negative | Test System: E. COLI, Strain/Indicator: WP2, Metabolic Activation: RAT, LIVER, S-9, AROCLOR 1254, Method: STANDARD PLATE inactive; negative

Cn1c(N=[N+]=[N-])nc2ccc3ncccc3c21
active: Test System: AMES SALMONELLA TYPHIMURIUM, Strain/Indicator: TA98(1,8-DNP6), Metabolic Activation: NONE, Method: STANDARD PLATE active; positive | [1] active; positive

COc1cc(NS(C)(=O)=O)ccc1Nc1c2ccccc2nc2ccc(N=[N+]=[N-])cc12
active: [3] active; positive

[Cl][Pd-2]([Cl])([Cl])[Cl]
inactive: Test System: AMES SALMONELLA TYPHIMURIUM, Strain/Indicator: TA97A, Metabolic Activation: NONE, Method: STANDARD PLATE inactive; negative | Test System: AMES SALMONELLA TYPHIMURIUM, Strain/Indicator: TA97A, Metabolic Activation: RAT, LIVER, S-9, PHENOBARBITAL AND 5,6-BENZOFLAVONE, Method: STANDARD PLATE inactive; negative | Test System: AMES SALMONELLA TYPHIMURIUM, Strain/Indicator: TA97A, Metabolic Activation: RAT, LIVER, S-9, PHENOBARBITAL AND BETA-NAPHTHOFLAVONE, Method: STANDARD PLATE inactive; negative | Test System: AMES SALMONELLA TYPHIMURIUM, Strain/Indicator: TA98, Metabolic Activation: NONE, Method: PREINCUBATION inactive; negative | [1] inactive; negative | Test System: AMES SALMONELLA TYPHIMURIUM, Strain/Indicator: TA98, Metabolic Activation: RAT, LIVER, S-9, AROCLOR 1254, Method: PREINCUBATION inactive; negative | Test System: AMES SALMONELLA TYPHIMURIUM, Strain/Indicator: TA98, Metabolic Activation: RAT, LIVER, S-9, PHENOBARBITAL AND 5,6-BENZOFLAVONE, Method: STANDARD PLATE inactive; negative | Test System: AMES SALMONELLA TYPHIMURIUM, Strain/Indicator: TA98, Metabolic Activation: RAT, LIVER, S-9, PHENOBARBITAL AND BETA-NAPHTHOFLAVONE, Method: STANDARD PLATE inactive; negative | Test System: AMES SALMONELLA TYPHIMURIUM, Strain/Indicator: TA100, Metabolic Activation: NONE, Method: PREINCUBATION inactive; negative | [2] inactive; negative | Test System: AMES SALMONELLA TYPHIMURIUM, Strain/Indicator: TA100, Metabolic Activation: RAT, LIVER, S-9, AROCLOR 1254, Method: PREINCUBATION inactive; negative | Test System: AMES SALMONELLA TYPHIMURIUM, Strain/Indicator: TA100, Metabolic Activation: RAT, LIVER, S-9, PHENOBARBITAL AND 5,6-BENZOFLAVONE, Method: STANDARD PLATE inactive; negative | Test System: AMES SALMONELLA TYPHIMURIUM, Strain/Indicator: TA100, Metabolic Activation: RAT, LIVER, S-9, PHENOBARBITAL AND BETA-NAPHTHOFLAVONE, Method: STANDARD PLATE inactive; negative | Test System: AMES SALMONELLA TYPHIMURIUM, Strain/Indicator: TA102, Metabolic Activation: NONE, Method: STANDARD PLATE inactive; negative | Test System: AMES SALMONELLA TYPHIMURIUM, Strain/Indicator: TA102, Metabolic Activation: RAT, LIVER, S-9, PHENOBARBITAL AND 5,6-BENZOFLAVONE, Method: STANDARD PLATE inactive; negative | Test System: AMES SALMONELLA TYPHIMURIUM, Strain/Indicator: TA102, Metabolic Activation: RAT, LIVER, S-9, PHENOBARBITAL AND BETA-NAPHTHOFLAVONE, Method: STANDARD PLATE inactive; negative

From PubChem BioAssay AID1259407 (Chemical Carcinogenesis Research Information System (CCRIS), 2018)
